In publication PMC8222254, “Self-assembly of an anion receptor with metal-dependent kinase inhibition and potent in vitro anti-cancer properties” (Nature Communications, 2021):
Several values for one entry are separate records, joined by “and”; a condition that tells them apart may be missing. Identical values can stand only once.

Assays:
Assay in all cases: Kinase inhibition screen, cell-free 33P ATP assay at 10 μM
Assay type in all cases: biochemical
[1] = molecular target: T1, 140 purified human kinases (Homo sapiens, UniProt Q16832)
T1 sequence (Q16832 22-855): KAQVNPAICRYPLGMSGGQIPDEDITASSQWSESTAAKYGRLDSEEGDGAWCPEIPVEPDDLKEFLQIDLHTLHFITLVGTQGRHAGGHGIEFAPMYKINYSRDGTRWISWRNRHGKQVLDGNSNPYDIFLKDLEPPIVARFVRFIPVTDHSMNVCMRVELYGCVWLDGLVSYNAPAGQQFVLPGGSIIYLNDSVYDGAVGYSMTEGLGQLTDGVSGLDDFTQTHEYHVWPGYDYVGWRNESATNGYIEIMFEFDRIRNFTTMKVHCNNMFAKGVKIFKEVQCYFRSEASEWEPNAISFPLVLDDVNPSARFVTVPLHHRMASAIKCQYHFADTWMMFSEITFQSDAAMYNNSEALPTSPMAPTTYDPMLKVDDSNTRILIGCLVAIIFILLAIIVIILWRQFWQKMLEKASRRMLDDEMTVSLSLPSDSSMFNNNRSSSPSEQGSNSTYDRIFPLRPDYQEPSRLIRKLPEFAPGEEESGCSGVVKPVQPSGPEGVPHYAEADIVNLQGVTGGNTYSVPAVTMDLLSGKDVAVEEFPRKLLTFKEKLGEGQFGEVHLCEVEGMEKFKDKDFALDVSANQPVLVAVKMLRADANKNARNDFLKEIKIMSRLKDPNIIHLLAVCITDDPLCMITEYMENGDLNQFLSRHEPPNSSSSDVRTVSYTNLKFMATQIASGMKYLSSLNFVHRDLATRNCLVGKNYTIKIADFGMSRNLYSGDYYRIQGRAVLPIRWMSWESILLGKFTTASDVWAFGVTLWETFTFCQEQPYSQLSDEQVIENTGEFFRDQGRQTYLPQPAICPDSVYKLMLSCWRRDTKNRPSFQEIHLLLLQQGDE
Summary of the method: (§1)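 Radiometric ^33P ATP cell-free format with purified enzymes; both complexes run at 10 μM in duplicate, results plotted on a kinome map via HGNC symbols.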

[2] = molecular target: 140 purified human kinases (Homo sapiens, UniProt P27361)
Summary of the method: as §1

[3] = molecular target: 140 purified human kinases (Homo sapiens, UniProt Q6IQ55)
Summary of the method: as §1

[4] = molecular target: 140 purified human kinases (Homo sapiens, UniProt P11309)
Summary of the method: as §1

[5] = molecular target: 140 purified human kinases (Homo sapiens, UniProt Q16539); conditions: p38a MAPK
Summary of the method: as §1

[6] = molecular target: 140 purified human kinases (Homo sapiens, UniProt P49760)
Summary of the method: as §1

[7] = molecular target: T2, 140 purified human kinases (Homo sapiens, UniProt Q8IYT8)
T2 sequence (Q8IYT8 1-1036): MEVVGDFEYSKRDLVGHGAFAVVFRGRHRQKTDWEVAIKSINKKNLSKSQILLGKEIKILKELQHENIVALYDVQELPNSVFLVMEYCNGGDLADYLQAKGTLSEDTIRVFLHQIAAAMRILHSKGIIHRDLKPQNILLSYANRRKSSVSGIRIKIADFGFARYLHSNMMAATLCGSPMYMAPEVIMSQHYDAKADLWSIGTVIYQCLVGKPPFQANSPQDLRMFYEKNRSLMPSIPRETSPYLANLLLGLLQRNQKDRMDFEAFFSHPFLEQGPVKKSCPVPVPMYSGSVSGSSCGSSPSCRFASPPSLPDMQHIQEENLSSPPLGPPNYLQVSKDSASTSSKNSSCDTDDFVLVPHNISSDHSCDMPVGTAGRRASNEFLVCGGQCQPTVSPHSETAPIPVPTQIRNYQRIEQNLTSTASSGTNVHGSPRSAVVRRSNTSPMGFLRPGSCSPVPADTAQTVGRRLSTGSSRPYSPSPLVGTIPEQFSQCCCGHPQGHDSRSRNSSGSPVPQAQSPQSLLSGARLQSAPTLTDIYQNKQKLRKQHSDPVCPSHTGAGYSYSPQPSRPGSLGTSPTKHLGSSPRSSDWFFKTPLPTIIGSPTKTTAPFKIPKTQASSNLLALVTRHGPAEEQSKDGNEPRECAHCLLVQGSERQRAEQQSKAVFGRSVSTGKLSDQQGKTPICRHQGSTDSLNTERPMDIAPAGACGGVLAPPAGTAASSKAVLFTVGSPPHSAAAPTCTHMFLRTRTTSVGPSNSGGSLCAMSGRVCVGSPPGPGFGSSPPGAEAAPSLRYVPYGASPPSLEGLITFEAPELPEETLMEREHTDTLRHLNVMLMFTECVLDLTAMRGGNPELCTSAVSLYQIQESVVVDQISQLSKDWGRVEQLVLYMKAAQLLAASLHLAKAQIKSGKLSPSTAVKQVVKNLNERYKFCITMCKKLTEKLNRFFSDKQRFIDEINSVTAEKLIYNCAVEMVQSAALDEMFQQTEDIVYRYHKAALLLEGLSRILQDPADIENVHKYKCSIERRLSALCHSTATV
Summary of the method: as §1

[8] = molecular target: 140 purified human kinases (Homo sapiens, UniProt Q96RR4); conditions: CAMKKb
Summary of the method: as §1

140 purified human kinases (Homo sapiens, UniProt Q96RR4), sequence (Q96RR4 whole entry): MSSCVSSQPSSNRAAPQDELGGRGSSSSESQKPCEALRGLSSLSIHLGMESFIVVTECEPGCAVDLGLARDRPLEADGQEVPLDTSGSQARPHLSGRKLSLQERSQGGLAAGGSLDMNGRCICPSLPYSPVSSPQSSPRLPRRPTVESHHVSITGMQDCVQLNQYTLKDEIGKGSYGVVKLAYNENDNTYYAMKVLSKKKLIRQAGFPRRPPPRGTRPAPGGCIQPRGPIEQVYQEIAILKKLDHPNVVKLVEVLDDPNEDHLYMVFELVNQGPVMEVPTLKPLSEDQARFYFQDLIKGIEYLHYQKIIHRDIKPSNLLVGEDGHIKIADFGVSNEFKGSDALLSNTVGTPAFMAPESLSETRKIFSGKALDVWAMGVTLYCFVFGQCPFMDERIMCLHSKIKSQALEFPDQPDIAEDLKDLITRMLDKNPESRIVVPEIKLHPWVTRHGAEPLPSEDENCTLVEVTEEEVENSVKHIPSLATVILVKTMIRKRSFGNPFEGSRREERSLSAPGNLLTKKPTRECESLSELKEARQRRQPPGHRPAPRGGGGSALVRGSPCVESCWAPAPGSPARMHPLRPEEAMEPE
140 purified human kinases (Homo sapiens, UniProt Q16539), sequence (Q16539 whole entry): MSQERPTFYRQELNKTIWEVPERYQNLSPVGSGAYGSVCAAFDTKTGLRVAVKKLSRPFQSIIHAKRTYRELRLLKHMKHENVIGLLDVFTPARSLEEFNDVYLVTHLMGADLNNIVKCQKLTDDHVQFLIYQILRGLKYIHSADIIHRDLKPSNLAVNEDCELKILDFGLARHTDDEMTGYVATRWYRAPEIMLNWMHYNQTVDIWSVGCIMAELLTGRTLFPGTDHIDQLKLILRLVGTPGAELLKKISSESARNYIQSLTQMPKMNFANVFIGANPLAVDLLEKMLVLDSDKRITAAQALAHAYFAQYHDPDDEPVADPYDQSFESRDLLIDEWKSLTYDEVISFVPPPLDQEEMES
140 purified human kinases (Homo sapiens, UniProt P11309), sequence (P11309 whole entry): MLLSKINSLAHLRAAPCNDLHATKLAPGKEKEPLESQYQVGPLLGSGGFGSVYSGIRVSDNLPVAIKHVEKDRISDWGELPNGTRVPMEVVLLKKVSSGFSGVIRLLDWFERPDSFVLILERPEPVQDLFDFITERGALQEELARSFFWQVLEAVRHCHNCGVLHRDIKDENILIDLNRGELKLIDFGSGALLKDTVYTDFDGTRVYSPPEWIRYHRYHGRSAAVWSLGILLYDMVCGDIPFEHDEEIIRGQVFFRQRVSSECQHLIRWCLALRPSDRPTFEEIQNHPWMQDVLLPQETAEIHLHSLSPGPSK
140 purified human kinases (Homo sapiens, UniProt P49760), sequence (P49760 whole entry): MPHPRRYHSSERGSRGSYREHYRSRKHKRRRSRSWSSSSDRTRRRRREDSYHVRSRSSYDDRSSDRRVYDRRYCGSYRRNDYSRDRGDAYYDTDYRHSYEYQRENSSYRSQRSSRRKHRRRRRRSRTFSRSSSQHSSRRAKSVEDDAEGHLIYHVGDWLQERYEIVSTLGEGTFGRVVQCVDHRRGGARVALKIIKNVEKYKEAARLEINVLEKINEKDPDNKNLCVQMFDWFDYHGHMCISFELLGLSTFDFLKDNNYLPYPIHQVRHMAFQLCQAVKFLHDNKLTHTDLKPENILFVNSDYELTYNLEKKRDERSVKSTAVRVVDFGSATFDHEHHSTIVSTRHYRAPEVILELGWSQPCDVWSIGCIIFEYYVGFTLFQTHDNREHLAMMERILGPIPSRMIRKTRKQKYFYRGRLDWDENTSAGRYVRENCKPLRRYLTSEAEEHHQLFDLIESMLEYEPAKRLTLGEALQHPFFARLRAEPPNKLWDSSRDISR
140 purified human kinases (Homo sapiens, UniProt Q6IQ55), sequence (Q6IQ55 whole entry): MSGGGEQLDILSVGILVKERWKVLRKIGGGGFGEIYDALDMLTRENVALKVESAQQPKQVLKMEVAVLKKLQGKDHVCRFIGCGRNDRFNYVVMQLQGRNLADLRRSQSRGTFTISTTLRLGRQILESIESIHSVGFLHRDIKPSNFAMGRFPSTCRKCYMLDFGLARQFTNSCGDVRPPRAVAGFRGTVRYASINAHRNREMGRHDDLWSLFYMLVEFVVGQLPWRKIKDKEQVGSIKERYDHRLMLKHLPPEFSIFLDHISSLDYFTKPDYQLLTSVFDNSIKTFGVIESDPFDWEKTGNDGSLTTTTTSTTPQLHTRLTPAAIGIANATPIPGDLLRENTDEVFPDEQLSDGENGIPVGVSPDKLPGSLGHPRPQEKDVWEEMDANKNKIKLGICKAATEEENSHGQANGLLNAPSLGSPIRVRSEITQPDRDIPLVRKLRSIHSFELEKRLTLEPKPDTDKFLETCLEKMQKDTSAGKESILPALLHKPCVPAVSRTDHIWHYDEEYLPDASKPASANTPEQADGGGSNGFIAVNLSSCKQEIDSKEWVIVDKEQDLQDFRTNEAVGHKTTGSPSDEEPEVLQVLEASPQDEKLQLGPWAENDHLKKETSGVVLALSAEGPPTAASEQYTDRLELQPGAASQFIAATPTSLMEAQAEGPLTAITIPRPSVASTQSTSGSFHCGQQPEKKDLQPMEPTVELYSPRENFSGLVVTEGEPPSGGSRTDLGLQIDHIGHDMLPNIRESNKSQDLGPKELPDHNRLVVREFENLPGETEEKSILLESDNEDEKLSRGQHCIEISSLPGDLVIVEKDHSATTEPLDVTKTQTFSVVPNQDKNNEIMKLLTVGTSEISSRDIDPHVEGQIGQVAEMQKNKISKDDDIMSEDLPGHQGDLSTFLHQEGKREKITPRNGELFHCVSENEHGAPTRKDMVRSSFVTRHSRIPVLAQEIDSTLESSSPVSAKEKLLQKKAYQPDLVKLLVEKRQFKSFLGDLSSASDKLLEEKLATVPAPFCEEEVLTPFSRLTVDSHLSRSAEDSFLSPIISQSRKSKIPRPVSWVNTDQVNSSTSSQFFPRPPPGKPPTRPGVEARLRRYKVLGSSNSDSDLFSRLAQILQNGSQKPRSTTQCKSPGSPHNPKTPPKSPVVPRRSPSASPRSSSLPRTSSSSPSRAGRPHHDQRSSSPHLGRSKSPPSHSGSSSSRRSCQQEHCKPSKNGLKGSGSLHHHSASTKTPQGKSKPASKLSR
140 purified human kinases (Homo sapiens, UniProt P27361), sequence (P27361 whole entry): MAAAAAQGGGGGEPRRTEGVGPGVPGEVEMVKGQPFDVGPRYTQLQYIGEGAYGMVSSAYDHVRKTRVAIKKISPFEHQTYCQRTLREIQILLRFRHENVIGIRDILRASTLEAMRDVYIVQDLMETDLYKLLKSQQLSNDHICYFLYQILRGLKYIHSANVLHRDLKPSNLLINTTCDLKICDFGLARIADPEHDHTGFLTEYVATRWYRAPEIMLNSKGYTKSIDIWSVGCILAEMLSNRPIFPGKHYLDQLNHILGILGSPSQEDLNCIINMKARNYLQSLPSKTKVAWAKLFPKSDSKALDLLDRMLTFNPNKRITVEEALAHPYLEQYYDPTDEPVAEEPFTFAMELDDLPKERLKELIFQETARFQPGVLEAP

In the case of `[Cu+2].[Cu+2].[Cu+2].c1ccc(-c2csc(NCCN(CCNc3nc(-c4ccccn4)cs3)CCNc3nc(-c4ccccn4)cs3)n2)nc1.c1ccc(-c2csc(NCCN(CCNc3nc(-c4ccccn4)cs3)CCNc3nc(-c4ccccn4)cs3)n2)nc1` [[L2Cu3]6+], the “% Inhibition Run 1” value ([1]; DDR2) was 21.7%, the “% Inhibition Run 2” value ([1]; DDR2) was 11.4% and the “% Inhibition, Mean” value ([1]; DDR2) was 17%. The mean % activity ([1]; DDR2) was 83%, the “% activity” value ([1]; DDR2, Run 1) was 78.3% and the “% activity” value ([1]; DDR2, Run 2) was 88.6%. For the same molecule, the “% Activation, Mean value” ([2]; ERK1) was 1.15%, the “% Inhibition Run 1” value ([2]; ERK1) was 6.5% and the “% Inhibition Run 2” value ([2]; ERK1) was -8.8%. The “% Inhibition, Mean” value ([2]; ERK1) was -1.15%, the mean % activity ([2]; ERK1) was 101% and the “% activity” value ([2]; ERK1, Run 1) was 93.5%. The “% activity” value ([2]; ERK1, Run 2) was 108.8%, the “% Inhibition Run 1” value ([3]; TTBK2) was 13% and the “% Inhibition Run 2” value ([3]; TTBK2) was -12.2%. The “% Inhibition, Mean” value ([3]; TTBK2) was 0.4%, the mean % activity ([3]; TTBK2) was 100% and the “% activity” value ([3]; TTBK2, Run 1) was 87%. The “% activity” value ([3]; TTBK2, Run 2) was 112.2%, the “% Inhibition Run 1” value ([4]; PIM1) was 53.7% and the “% Inhibition Run 2” value ([4]; PIM1) was 42%. For the same molecule, the “% Inhibition, Mean” value ([4]; PIM1) was 48%, the mean % activity ([4]; PIM1) was 52% and the “% activity” value ([4]; PIM1, Run 1) was 46.3%. The “% activity” value ([4]; PIM1, Run 2) was 58%, the “% Inhibition Run 1” value [5] was 12.7% and the “% Inhibition Run 2” value [5] was -5.2%. The “% Inhibition, Mean” value [5] was 3.75%, the mean % activity [5] was 96% and the “% activity” value ([5]; Run 1) was 87.3%. For the same molecule, the “% activity” value ([5]; Run 2) was 105.2%, the “% Activation, Mean value” ([6]; CLK2) was 3% and the “% Inhibition Run 1” value ([6]; CLK2) was -9.8%. For the same molecule, the “% Inhibition Run 2” value ([6]; CLK2) was 3.9%, the “% Inhibition, Mean” value ([6]; CLK2) was -3% and the mean % activity ([6]; CLK2) was 103%. For the same molecule, the “% activity” value ([6]; CLK2, Run 1) was 109.8%, the “% activity” value ([6]; CLK2, Run 2) was 96.1% and the “% Inhibition Run 1” value ([7]; ULK2) was 48%. For the same molecule, the “% Inhibition Run 2” value ([7]; ULK2) was 52.6%, the “% Inhibition, Mean” value ([7]; ULK2) was 50% and the mean % activity ([7]; ULK2) was 50%. The “% activity” value ([7]; ULK2, Run 1) was 52%, the “% activity” value ([7]; ULK2, Run 2) was 47.4% and the “% Inhibition Run 1” value [8] was 42.1%. The “% Inhibition Run 2” value [8] was 54.8%, the “% Inhibition, Mean” value [8] was 48% and the mean % activity [8] was 52%. The “% activity” value ([8]; Run 1) was 57.9% and the “% activity” value ([8]; Run 2) was 45.2%.
For `CC(=O)[O-].CC(=O)[O-].CC(=O)[O-].CC(=O)[O-].CC(=O)[O-].CC(=O)[O-].[Zn+2].[Zn+2].[Zn+2].c1ccc(-c2csc(NCCN(CCNc3nc(-c4ccccn4)cs3)CCNc3nc(-c4ccccn4)cs3)n2)nc1.c1ccc(-c2csc(NCCN(CCNc3nc(-c4ccccn4)cs3)CCNc3nc(-c4ccccn4)cs3)n2)nc1` [[L2Zn3]6+], the “% Inhibition, Mean” value ([1]; DDR2) was 19%, the “% Inhibition, Run 1 / Run 2” value ([1]; DDR2) was 23% and 15% and the mean % activity ([1]; DDR2) was 81%. The “% activity” value ([1]; DDR2, duplicate runs) was 77% and 85%, the “% Activation, Mean value” ([2]; ERK1) was 5% and the “% Inhibition, Mean” value ([2]; ERK1) was -5%. For the same molecule, the mean % activity ([2]; ERK1) was 105%, the “% activity” value ([2]; ERK1, duplicate runs) was 115% and 95% and the “% Activation, Mean value” ([3]; TTBK2) was 0.5%. For the same molecule, the “% Inhibition, Mean” value ([3]; TTBK2) was -0.5%, the mean % activity ([3]; TTBK2) was 101% and the “% activity” value ([3]; TTBK2, duplicate runs) was 91% and 110%. For the same molecule, the “% Inhibition, Mean” value ([4]; PIM1) was 26%, the “% Inhibition, Run 1 / Run 2” value ([4]; PIM1) was 28% and 23% and the mean % activity ([4]; PIM1) was 74%. The “% activity” value ([4]; PIM1, duplicate runs) was 72% and 77%, the “% Inhibition, Mean” value [5] was 16% and the mean % activity [5] was 84%. For the same molecule, the “% activity” value ([5]; duplicate runs) was 72% and 95%, the “% Inhibition, Mean” value ([6]; CLK2) was 44% and the “% Inhibition, Run 1 / Run 2” value ([6]; CLK2) was 43% and 45%. For the same molecule, the mean % activity ([6]; CLK2) was 56%, the “% activity” value ([6]; CLK2, duplicate runs) was 57% and 55% and the “% Activation, Mean value” ([7]; ULK2) was 2%. For the same molecule, the “% Inhibition, Mean” value ([7]; ULK2) was -2%, the mean % activity ([7]; ULK2) was 102% and the “% activity” value ([7]; ULK2, duplicate runs) was 95% and 109%. The “% Inhibition, Mean” value [8] was 44%, the “% Inhibition, Run 1 / Run 2” value [8] was 44% and the mean % activity [8] was 56%. For the same molecule, the “% activity” value ([8]; duplicate runs) was 57% and 56%.
